Patent US20030118649A1, “Drug delivery devices and methods” (priority 2001, published 2003)

Experiments:
[1] = test system: VX-2 cells; settings: Ridge et al. 1988; cited from earlier work
[2] = Fluorescence imaging of doxorubicin distribution in rabbit livers after millirod implantation; settings: in vivo
Procedure: In accordance with the present invention, we developed a fluorescence imaging method to analyze doxorubicin distribution in rabbit liver tissues. First, we determined the calibration curve to correlate fluorescence intensity with doxorubicin concentration in liver tissues. Second, we estimated the sensitivity limit (0.6 μg/g of liver tissue) for doxorubicin detection by this method. This value is well below the cytotoxic concentrations of doxorubicin to VX-2 cells (˜6.4 μg/g). (Ridge, J. A., Collin, C., Bading, J. R., Hancock, C., Conti, P. S., Daly, J. M. and Raaf, J. H. (1988) Cancer Res 48(16), 4584-7. Third, we used this method to quantify the dynamics of drug distribution in ablated and non-ablated rabbit livers over time. The detailed experimental procedure of the fluorescence imaging method is described below.
FIG. 14 compares the 2D doxorubicin distribution profiles between non-ablated and thermoablated liver tissues. In this set of experiments, a monolithic millirod with burst release kinetics (millirod (a) in FIG. 2) was implanted in either non-ablated or thermoablated livers. […] White dashed lines in the figures represent the ablated-normal tissue boundary, which was obtained by comparing the fluorescence image with an optical image of histology slides where this boundary is well-defined (see next section).

[3] = Structural integrity of doxorubicin after millirod fabrication (NMR); type: physicochemical; settings: compression-heat molding, 90° C., 2 hours
Procedure: These devices are prepared as a monolithic system using a compression-heat-molding procedure that has been developed. (Qian, F., Szymanski, A. and Gao, J. (2001) J. Biomed. Mater. Res. 55, 512-522.) Briefly, doxorubicin solution (2 mg/mL, also containing 0.9% NaCl) from Bedford Laboratories is first dialyzed in distilled water to remove the NaCl. […] The well-mixed particles are placed in a Teflon tube and molded into a polymer millirod at a compression pressure of 4.6×10^6 Pa and a fabrication temperature at 90° C. for 2 hours.
Determination of the structural integrity of released doxorubicin. Released doxorubicin in PBS is desalted by gel filtration column chromatography (G-10 column, Pharmacia). Samples are lyophilized and characterized by ^1H and ^13C nuclear magnetic resonance (NMR) and mass spectrometry to examine their structural integrity. In NMR analysis, lyophilized agents are dissolved in deuterated methanol and spectrum will be obtained on a 300 MHz ^1H NMR instrument (Bruker). The chemical shifts of the released agents are compared to the pure compound to detect possible structural decomposition.

Q: Which “cytotoxic concentration of doxorubicin” value [1] does the source give for `COc1cccc2c1C(=O)c1c(O)c3c(c(O)c1C2=O)C[C@@](O)(C(=O)CO)C[C@@H]3O[C@H]1C[C@H](N)[C@H](O)[C@H](C)O1` [doxorubicin] here?
A: The value was ~6.4 µg/g.

Q: What about the concentration at 24 h [2] of the same compound?
A: The concentration at 24 h was 50000 ng/g.

Q: And the “structure of doxorubicin after fabrication” value [3]?
A: The value was “remained intact”.
